Assay results as given in patent publication US20250145665A1, “MACROCYCLIC PEPTIDES USEFUL AS MODULATORS OF TNF ALPHA” (Bristol-Myers Squibb Company, priority 2023, published 2025).
Starred links: 1 amine or outer side, 2 acyl side, 3 side chain; linkers in the order of their positions; H or OH if unused. Positions of bridges follow the written chain, without caps; N, C: chain ends. Non-standard residues stand in square brackets, D forms with d. Residues, ends and D or L forms follow the SMILES beside them. *: point of attachment. X84 = O=C(Oc1cccc(-c2ccc(C[C@H](N[*:1])C(=O)[*:2])cc2)c1)c1csc(-c2ccncc2)n1; X46 = O=C(Cc1cccc(C(=O)O)c1)Nc1ccc(-c2ccc(C[C@H](N[*:1])C(=O)[*:2])cc2)cc1; Bip(4'-NH) = O=C([C@H](Cc1ccc(-c2ccc(N[*:3])cc2)cc1)N[*:1])[*:2]; Bip(4'-CONHMe) = CNC(=O)c1ccc(-c2ccc(C[C@H](N)C(=O)O)cc2)cc1; Bip(4'-COOH) = N[C@@H](Cc1ccc(-c2ccc(C(=O)O)cc2)cc1)C(=O)O; X49 = O=C([C@H](Cc1ccc(-c2cccc(N[*:3])c2)cc1)N[*:1])[*:2]; Ala(morpholin-4-yl) = N[C@@H](CN1CCOCC1)C(=O)O; Bip = N[C@@H](Cc1ccc(-c2ccccc2)cc1)C(=O)O; X24 = O=C(O)COc1cc(-c2ccccc2)ccc1C(=O)*; X31 = Cn1c(C(=O)*)cc2cccc(Cl)c21; X32 = O=C(c1sc2cccc(Cl)c2c1Cl)*; Cha = N[C@@H](CC1CCCCC1)C(=O)O; X50 = O=C(O)COc1ccccc1C(=O)*; Sar = CNCC(=O)O

Target: TNFα (Homo sapiens, UniProt P01375)
Sequence (P01375 77-233 limits assumed): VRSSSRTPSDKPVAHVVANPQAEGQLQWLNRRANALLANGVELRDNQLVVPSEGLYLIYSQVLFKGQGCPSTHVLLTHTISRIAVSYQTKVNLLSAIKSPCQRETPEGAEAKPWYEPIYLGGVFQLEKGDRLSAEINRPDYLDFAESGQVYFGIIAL
Experiment: TNF-Induced HEK-Blue Assay
Type: cell-based
Conditions: HEK-Blue-CD40L cells, NF-kB-driven secreted alkaline phosphatase reporter; TNFα 0.5 ng/ml; 18 h; read-out: TNF induced HEK-Blue assay IC50 value

| Structure (SMILES) | IC50 |
| --- | --- |
| CC[C@H](C)[C@@H]1NC(=O)[C@@H](CCCNC(=N)N)NC(=O)[C@H](CC(=O)O)NC(=O)[C@H](Cc2cnc[nH]2)NC(=O)CN(C)C(=O)[C@H](Cc2ccc(-c3ccc(NC(=O)c4sc5cccc(Cl)c5c4Cl)cc3)cc2)NC(=O)[C@H](Cc2ccc(-c3ccccc3)cc2)NC(=O)[C@H](CC2CCCCC2)NC(=O)CSC[C@@H](C(=O)NCC(N)=O)NC(=O)[C@H](CC(C)C)NC(=O)[C@H](Cc2cnc[nH]2)NC(=O)[C@H](C(C)C)NC(=O)[C@@H]2CCCN2C1=O [Example 325] ({CH2CO}-[Cha][Bip][Bip(4'-NH)](X32)[Sar]HD[dR]IPVHLCG-NH2; thioether N-13) | 200 to 2000 nM |
| CC[C@H](C)[C@@H]1NC(=O)[C@@H](CCCNC(=N)N)NC(=O)[C@H](CC(=O)O)NC(=O)[C@H](Cc2cnc[nH]2)NC(=O)CN(C)C(=O)[C@H](Cc2ccc(-c3ccc(NC(=O)c4cc5cccc(Cl)c5n4C)cc3)cc2)NC(=O)[C@H](Cc2ccc(-c3ccccc3)cc2)NC(=O)[C@H](CC2CCCCC2)NC(=O)CSC[C@@H](C(=O)NCC(N)=O)NC(=O)[C@H](CC(C)C)NC(=O)[C@H](Cc2cnc[nH]2)NC(=O)[C@H](C(C)C)NC(=O)[C@@H]2CCCN2C1=O [Example 326] ({CH2CO}-[Cha][Bip][Bip(4'-NH)](X31)[Sar]HD[dR]IPVHLCG-NH2; thioether N-13) | 50 to 200 nM |
| CC(C)C[C@@H]1NC(=O)[C@H](CCCNC(=N)N)NC(=O)[C@H](C(C)C)NC(=O)[C@@H]2CCCN2C(=O)[C@H](C(C)C)NC(=O)[C@@H](CCCNC(=N)N)NC(=O)[C@H](CC(=O)O)NC(=O)[C@@H]2CCCN2C(=O)CN(C)C(=O)[C@H](Cc2ccc(-c3cccc(NC(=O)c4ccccc4OCC(=O)O)c3)cc2)NC(=O)[C@H](Cc2ccc(-c3ccccc3)cc2)NC(=O)[C@H](CN2CCOCC2)NC(=O)CSC[C@@H](C(=O)NCC(N)=O)NC1=O [Example 327] ({CH2CO}-[Ala(morpholin-4-yl)][Bip][X49](X50)[Sar]PD[dR]VPVRLCG-NH2; thioether N-13) | 50 to 200 nM |
| CC[C@H](C)[C@@H]1NC(=O)[C@@H](CCCNC(=N)N)NC(=O)[C@H](CC(=O)O)NC(=O)[C@H](Cc2cnc[nH]2)NC(=O)CN(C)C(=O)[C@H](Cc2ccc(-c3ccc(NC(=O)Cc4cccc(C(=O)O)c4)cc3)cc2)NC(=O)[C@H](Cc2ccc(-c3ccccc3)cc2)NC(=O)[C@H](CC2CCCCC2)NC(=O)CSC[C@@H](C(=O)NCC(N)=O)NC(=O)[C@H](CC(C)C)NC(=O)[C@H](Cc2cnc[nH]2)NC(=O)[C@H](C(C)C)NC(=O)[C@@H]2CCCN2C1=O [Example 328] ({CH2CO}-[Cha][Bip][X46][Sar]HD[dR]IPVHLCG-NH2; thioether N-13) | 50 to 200 nM |
| CC[C@H](C)[C@@H]1NC(=O)[C@@H](CCCNC(=N)N)NC(=O)[C@H](CC(=O)O)NC(=O)[C@H](Cc2cnc[nH]2)NC(=O)CN(C)C(=O)[C@H](Cc2ccc(-c3ccc(NC(=O)c4ccccc4OCC(=O)O)cc3)cc2)NC(=O)[C@H](Cc2ccc(-c3ccccc3)cc2)NC(=O)[C@H](CC2CCCCC2)NC(=O)CSC[C@@H](C(=O)NCC(N)=O)NC(=O)[C@H](CC(C)C)NC(=O)[C@H](Cc2cnc[nH]2)NC(=O)[C@H](C(C)C)NC(=O)[C@@H]2CCCN2C1=O [Example 329] ({CH2CO}-[Cha][Bip][Bip(4'-NH)](X50)[Sar]HD[dR]IPVHLCG-NH2; thioether N-13) | < 50 nM |
| CC[C@H](C)[C@@H]1NC(=O)[C@@H](CCCNC(=N)N)NC(=O)[C@H](CC(=O)O)NC(=O)[C@H](Cc2cnc[nH]2)NC(=O)CN(C)C(=O)[C@H](Cc2ccc(-c3ccc(NC(=O)c4ccc(-c5ccccc5)cc4OCC(=O)O)cc3)cc2)NC(=O)[C@H](Cc2ccc(-c3ccccc3)cc2)NC(=O)[C@H](CC2CCCCC2)NC(=O)CSC[C@@H](C(=O)NCC(N)=O)NC(=O)[C@H](CC(C)C)NC(=O)[C@H](Cc2cnc[nH]2)NC(=O)[C@H](C(C)C)NC(=O)[C@@H]2CCCN2C1=O [Example 330] ({CH2CO}-[Cha][Bip][Bip(4'-NH)](X24)[Sar]HD[dR]IPVHLCG-NH2; thioether N-13) | 50 to 200 nM |
| CC[C@H](C)[C@@H]1NC(=O)[C@@H](CCCNC(=N)N)NC(=O)[C@H](CC(=O)O)NC(=O)[C@H](Cc2cnc[nH]2)NC(=O)CN(C)C(=O)[C@H](Cc2ccc(-c3ccc(C(=O)NC)cc3)cc2)NC(=O)[C@H](Cc2ccc(-c3ccc(C(=O)O)cc3)cc2)NC(=O)[C@H](CC2CCCCC2)NC(=O)CSC[C@@H](C(=O)NCC(N)=O)NC(=O)[C@H](CC(C)C)NC(=O)[C@H](Cc2cnc[nH]2)NC(=O)[C@H](C(C)C)NC(=O)[C@@H]2CCCN2C1=O [Example 331] ({CH2CO}-[Cha][Bip(4'-COOH)][Bip(4'-CONHMe)][Sar]HD[dR]IPVHLCG-NH2; thioether N-13) | < 50 nM |
| CC(C)C[C@@H]1NC(=O)[C@H](CCCNC(=N)N)NC(=O)[C@H](C(C)C)NC(=O)[C@@H]2CCCN2C(=O)[C@H](C(C)C)NC(=O)[C@@H](CCCNC(=N)N)NC(=O)[C@H](CC(=O)O)NC(=O)[C@@H]2CCCN2C(=O)CN(C)C(=O)[C@H](Cc2ccc(-c3cccc(OC(=O)c4csc(-c5ccncc5)n4)c3)cc2)NC(=O)[C@H](Cc2ccc(-c3ccccc3)cc2)NC(=O)[C@H](CN2CCOCC2)NC(=O)CSC[C@@H](C(=O)NCC(N)=O)NC1=O [Example 332] ({CH2CO}-[Ala(morpholin-4-yl)][Bip][X84][Sar]PD[dR]VPVRLCG-NH2; thioether N-13) | 200 to 2000 nM |
